# According to patent US11364220B2, “Compounds and methods for inhibiting CPY26 enzymes” (Queen's University at Kingston, priority 2016, dated 2022):
# Experiments:
# CYP26A1 = CYP26A1 (Homo sapiens (Human), UniProt O43174); experiment: Cell-based inhibitor assay, [H]-RA metabolism in CYP26A1 stably transfected HeLa cells; conditions: for IC50: CYP26A1 transfected HeLa cells, 3 hours at 37° C., inhibition of all trans-RA metabolism, read-out: IC50 26A1; for inhibition of CYP26A1-mediated RA metabolism compared with ketoconazole (in words): see IC50 values in Table 2
# Sequence of CYP26A1 (O43174 whole entry, species assumed): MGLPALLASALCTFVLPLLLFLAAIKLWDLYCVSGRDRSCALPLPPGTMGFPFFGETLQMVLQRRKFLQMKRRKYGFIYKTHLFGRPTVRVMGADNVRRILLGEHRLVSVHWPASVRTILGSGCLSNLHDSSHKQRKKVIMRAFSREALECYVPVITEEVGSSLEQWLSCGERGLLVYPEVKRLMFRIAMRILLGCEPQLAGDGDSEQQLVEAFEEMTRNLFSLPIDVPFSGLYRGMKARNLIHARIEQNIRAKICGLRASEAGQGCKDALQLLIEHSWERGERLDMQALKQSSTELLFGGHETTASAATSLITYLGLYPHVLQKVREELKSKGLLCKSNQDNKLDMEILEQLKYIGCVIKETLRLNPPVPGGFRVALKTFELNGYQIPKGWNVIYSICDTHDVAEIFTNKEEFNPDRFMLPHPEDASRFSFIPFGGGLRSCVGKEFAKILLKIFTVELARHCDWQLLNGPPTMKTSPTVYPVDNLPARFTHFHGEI
# Description: (§1) CYP26A1 or CYP26B1 stably transfected HeLa cells were maintained in Minimum Essential Medium (MEM) containing 10% fetal bovine serum (FBS) and 100 μg/mL hygromycin. Exponentially growing cells were harvested by incubation in trypsin. Cells were then collected and re-plated in 48-well culture plates at 5×10^5 cells in 0.2 mL of culture medium containing 0.05 μCi [H]-RA in the presence or absence of increasing concentrations of a test compound. The test compounds were diluted in dimethyl sulfoxide (DMSO) and then added in duplicate to wells at 0.01, 0.1, 1, 10 and 100 μM final concentration. […] Cells were incubated for 3 hours at 37° C. Retinoids were then extracted using the procedure of Bligh, et al., (1959), Canadian Journal of Biochemistry 37, 911-917, which was modified by using dichloromethane instead of chloroform. Each sample's water soluble radioactivity level was quantified using a β-scintillation counter (using Ecolume scintillation fluid, available from MP Biomedicals of Solon, Ohio, USA).
# [1] = tested on: RA sensitive reporter construct pCYP26A1-luc in MCF-7 cells; experiment: Retinoid activity assay, RA sensitive pCYP26A1-luc reporter in MCF-7 cells; type: cell-based; conditions: 24 hours, firefly relative to Renilla luciferase
# From the text: This retinoid activity assay measures the ability of test compounds to induce expression of a transiently transfected RA sensitive reporter construct. In this assay, MCF-7 cells are transfected with a construct comprising an upstream promoter of the CYP26A1 gene containing 2 RA response elements driving expression of firefly luciferase (pCYP26A1-luc). Since CYP26A1 is highly inducible by RA in these cells, this construct serves as a sensitive reporter of retinoid-like transcriptional activity.
# MCF-7 cells were maintained in RPMI-1640 medium containing 10% FBS. Exponentially growing cells were harvested by incubation in trypsin. Cells were then collected and plated in 24-well plates at 50,000 cells/well. Once cells reached 80-90% confluence (e.g., the next day), cells were transfected with two plasmids. The first plasmid was CYP26A1-luc construct (375 ng). The second plasmid was a control plasmid comprising the Renilla luciferase gene driven by constitutive thymidine kinase promoter (pRL-tk) (25 ng). Transfection was performed using FuGene 6 transfection reagent (Promega) with a 1:3 ratio of DNA:FuGene. 24 hours after transfection, cells were treated with test compounds diluted in DMSO in triplicate at 0.1, 1 and 10 μM final concentrations. As a positive control for reporter activation, cells were also treated with RA diluted in DMSO at the same concentrations listed above. DMSO treatment alone served as a negative control. After 24 hours of treatment, cells were harvested in passive lysis buffer (Promega) and luciferase activity in cell lysates were read using a luminometer. Data are expressed as the activity of firefly luciferase relative to Renilla luciferase (see Table 3). For CYP26A1 inhibitor compounds, no activation of the reporter was detected, while the related retinoid-like compound induces luciferase expression.
# CYP26B1 = CYP26B1 (Homo sapiens (Human), UniProt Q9NR63); experiment: Cell-based inhibitor assay, [H]-RA metabolism in CYP26B1 stably transfected HeLa cells; conditions: for IC50: CYP26B1 transfected HeLa cells, 3 hours at 37° C., inhibition of all trans-RA metabolism, read-out: IC50 26B1
# Sequence of CYP26B1 (Q9NR63 whole entry, species assumed): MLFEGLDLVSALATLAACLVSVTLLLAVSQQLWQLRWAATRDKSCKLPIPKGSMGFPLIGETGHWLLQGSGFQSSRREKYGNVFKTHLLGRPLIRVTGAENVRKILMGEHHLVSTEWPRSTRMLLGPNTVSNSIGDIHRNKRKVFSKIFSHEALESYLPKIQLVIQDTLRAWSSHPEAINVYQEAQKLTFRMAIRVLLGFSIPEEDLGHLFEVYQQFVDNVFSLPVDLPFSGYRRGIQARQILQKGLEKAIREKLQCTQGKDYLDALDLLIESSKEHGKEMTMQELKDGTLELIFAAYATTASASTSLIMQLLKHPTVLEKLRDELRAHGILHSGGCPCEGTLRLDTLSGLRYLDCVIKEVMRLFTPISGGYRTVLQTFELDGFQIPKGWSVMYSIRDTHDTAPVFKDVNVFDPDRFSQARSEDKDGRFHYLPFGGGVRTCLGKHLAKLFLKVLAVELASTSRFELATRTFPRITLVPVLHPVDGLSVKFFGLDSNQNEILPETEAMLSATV
# Description: as §1
# [2] = tested on: CYP26A1 expression in MCF-7 cells; experiment: Enhancement of RA activity assay, qPCR of CYP26A1 in MCF-7 cells treated with RA plus compound; type: cell-based; conditions: 1 μM RA + 1 μM compound, 24, 48, 72 hours
# Description: An RA activity assay was used to measure the ability of compounds that inhibit CYP26A1 to enhance activity of RA, for example, by limiting its catabolism. This assay measured expression of endogenous RA target genes in MCF-7 cells that have been treated with RA and a compound of interest. A compound that inhibits CYP26 activity will have the effect of prolonging the induction of RA target genes in response to RA.
# Exponentially growing MCF-7 cells were treated with trypsin, collected and plated into 6-well culture dishes at 300,000 cells per well. […] RA was also added at a final concentration of 1 μM. RNA was harvested using Trizol reagent after 24, 48, and 72 hours of treatment. cDNA was synthesized from 2 μg of total RNA using Superscript III cDNA synthesis kit with random priming (available from Life Technologies, Burlington, ON, Canada). Analysis of expression of the RA inducible CYP26A1 gene was quantified by qPCR normalized against expression of PMM2 with Sybr Select Master Mix (Life Technologies) and gene specific primers in a two-step thermal cycling reaction. Data is provided for a CYP26A1 selective inhibitor, which enhances the induction of CYP26A1.
# [3] = tested on: CYP26A1 expression in MCF-7 cells; experiment: qPCR of endogenous RA target gene CYP26A1 in MCF-7 cells, compound alone; type: cell-based; conditions: 1 μM
# Description: Additionally, for some compounds of particular interest, a second assay is performed to measure expression of endogenous RA target genes after treatment with test compounds in MCF-7 cells. Exponentially growing MCF-7 cells were treated with trypsin, collected and plated into 6-well culture dishes at 300,000 cells per well. Once cells reached confluency, they were treated with test compounds diluted in DMSO to a final concentration of 1 μM. As a positive control, cells were also treated with RA at 1 μM final concentration. After 24 hours of treatment, RNA was harvested using TRI reagent (available from Sigma-Aldrich, Oakville, Canada). cDNA was synthesized from 2 μg of total RNA using Superscript III cDNA synthesis kit with random priming (kit available from Life Technologies, Burlington, ON, Canada). Analysis of expression of a RA inducible CYP26A1 gene was quantified by qPCR normalized against expression of PMM2 with Sybr Select Master Mix (Life Technologies) and gene specific primers in a two-step thermal cycling reaction. Data is shown in Table 2 for select compounds of interest. […] See FIGS. 1 and 2 for graphs of retinoid activity.
SMILES,IC50 (CYP26A1) [µM],Luciferase Activity RLU Avg ([1]; 0.1 μM) [RLU],Luciferase Activity RLU Avg ([1]; 1 μM) [RLU],Luciferase Activity RLU Avg ([1]; 10 μM) [RLU],IC50 (CYP26B1) [µM],inhibitory activity towards CYP26A1 (in words) (CYP26A1),inhibition of CYP26A1-mediated RA metabolism compared with ketoconazole (in words) (CYP26A1),inhibition of CYP26B1 enzyme (in words) (CYP26B1),"enhancement of RA signaling, induction of CYP26A1 expression (in words) [2]","enhancement of RA signaling, induction of CYP26A1 expression (in words) ([2]; listed as GGP12)","expression of RA target genes, compound given alone (in words) [3]",retinoid-like activity (in words) ([3]; FIG. 8)
CC1(C)CCC(C)(C)c2cc(NC(=O)c3ccc(CC(=O)O)cc3)ccc21 [Cmpd 08],3.17,0.0025,0.0019,0.0028,19.2,–,–,–,–,–,–,–
CC1(C)CCC(C)(C)c2cc(S(=O)(=O)Nc3ccc(CC(=O)O)c(F)c3)ccc21 [Cmpd 09],2.2,0.0018,0.0017,0.0012,14.2,–,–,–,–,–,–,–
Cc1cc2c(c(C)c1C(=O)Nc1ccc(CC(=O)O)cc1)C(C)(C)CCC2(C)C [Cmpd 10],8.23,0.073,0.076,0.084,0.55,–,–,–,–,–,–,–
CC(C)c1cc2c(cc1S(=O)(=O)Nc1ccc(CC(=O)O)cc1)C(C)(C)CCC2(C)C [Cmpd 11],20,0.064,0.062,0.044,> 1000,–,–,–,–,–,–,–
Cc1cc2c(cc1S(=O)(=O)Nc1ccc(C(C)(C)C(=O)O)cc1)C(C)(C)CCC2(C)C [Cmpd 12],0.1,0.067,0.082,0.041,> 1000,selective inhibitory activity towards CYP26A1,comparable to or better than ketoconazole,None of the above compounds inhibited the CYP26B1 enzyme,greatly enhance RA signaling,enhancement of RA signaling,–,–
Cc1cc2c(cc1S(=O)(=O)Nc1ccc(C3(C(=O)O)CC3)cc1)C(C)(C)CCC2(C)C [Cmpd 13],6.2,0.113,0.07,0.04,> 100,–,–,–,–,–,–,–
Cc1cc2c(cc1S(=O)(=O)Nc1ccc(C(=O)O)cc1)C(C)(C)CCC2(C)C [Cmpd 14],28.4,0.111,0.125,0.134,> 100,–,–,–,–,–,–,–
CC1(C)CCC(C)(C)c2cc(S(=O)(=O)Nc3ccc(C(=O)O)cc3)ccc21 [Cmpd 15],> 1000,0.129,0.212,0.816,> 100,does not exhibit any inhibitory activity,–,does not exhibit any inhibitory activity,–,–,induces expression of the RA target gene CYP26A1,does exhibit retinoid-like activity
Cc1cc2c(cc1C(=O)Nc1ccc(C(C)(C)C(=O)O)cc1)C(C)(C)CCC2(C)C [Cmpd 16],1.77,0.166,0.183,0.155,11.9,selective inhibitory activity towards CYP26A1,comparable to or better than ketoconazole,None of the above compounds inhibited the CYP26B1 enzyme,–,–,–,–
CCC(CC)(C(=O)O)c1ccc(NS(=O)(=O)c2ccc3c(c2)C(C)(C)CCC3(C)C)cc1 [Cmpd 17],38.7,0.023,0.026,0.038,0.29,–,–,–,–,–,–,–
CCC(CC)(C(=O)O)c1ccc(NS(=O)(=O)c2cc3c(cc2C)C(C)(C)CCC3(C)C)cc1 [Cmpd 18],> 1000,0.0683,0.0597,0.05,9.07,–,–,–,–,–,–,–
Cc1cc2c(cc1S(=O)(=O)Nc1ccc(C(C(=O)O)C(C)C)cc1)C(C)(C)CCC2(C)C (stereo not drawn) [Cmpd 19],0.741,0.0244,0.019,0.0076,> 100,selective inhibitory activity towards CYP26A1,comparable to or better than ketoconazole,None of the above compounds inhibited the CYP26B1 enzyme,–,–,–,–
